# Results published in ChEMBL document CHEMBL3045228, “QSAR study of a series of acyl coenzyme A (CoA): cholesterol acyltransferase inhibitors using genetic function approximation” (Med Chem Res, 2011).
# Experiment: Inhibition of Acyl-coenzyme A:cholesterol acyltransferase (unknown origin) assessed as intracellular cholesterol esterification by cell based assay
# Conditions: Homo sapiens
structure (smiles),measurement,setting,value
COc1cc(NC(NCCCCCCCCc2ccc(C(C)(C)C)cc2)=C2C(=O)OC(C)(C)OC2=O)cc(OC)c1OC,IC50,read-out: IC50,2800 nM
same,IC50,read-out: pIC50 (converted),2800 nM
CCCCCc1ccc(CCCCCCCCNC(Nc2ccc(OC)cc2OC)=C2C(=O)OC(C)(C)OC2=O)cc1,IC50,read-out: IC50,840 nM
same,IC50,read-out: pIC50 (converted),839 nM
CC(C)CCc1ccc(CN(C(Nc2ccc(N(C)C)cc2)=C2C(=O)OC(C)(C)OC2=O)C(CC(C)C)CC(C)C)cc1,IC50,read-out: IC50,1300 nM
same,IC50,read-out: pIC50 (converted),1300 nM
CC(C)CCCC(C)N(Cc1ccc(CC(C)C)cc1)C(Nc1ccc(N(C)C)cc1)=C1C(=O)OC(C)(C)OC1=O (stereo unspecified),IC50,read-out: IC50,270 nM
same,IC50,read-out: pIC50 (converted),270 nM
CC(C)(C)Cc1ccc(CCCCCCCNC(Nc2cc(C(C)(C)C)c(O)c(C(C)(C)C)c2)=C2C(=O)OC(C)(C)OC2=O)cc1,IC50,read-out: IC50,240 nM
same,IC50,read-out: pIC50 (converted),240 nM
CCCCCc1ccc(CN(C(Nc2ccc(N(C)C)cc2C)=C2C(=O)OC(C)(C)OC2=O)C(C)CCCCC)cc1 (stereo unspecified),IC50,read-out: IC50,680 nM
same,IC50,read-out: pIC50 (converted),242 nM
CCCCCC(C)N(Cc1ccc(C(C)(C)C)cc1)C(Nc1cc(OC)c(OC)c(OC)c1)=C1C(=O)OC(C)(C)OC1=O (stereo unspecified),IC50,read-out: IC50,770 nM
same,IC50,read-out: pIC50 (converted),769 nM
CCCCCC(C)N(Cc1ccc(CC(C)(C)C)cc1)C(Nc1ccc(C)cc1C)=C1C(=O)OC(C)(C)OC1=O (stereo unspecified),IC50,read-out: IC50,490 nM
same,IC50,read-out: pIC50 (converted),490 nM
CC1(C)OC(=O)C(=C(NCCCCCCCCc2ccc(C(C)(C)C)cc2)Nc2ccc(Oc3ccccc3)cc2)C(=O)O1,IC50,read-out: IC50,920 nM
same,IC50,read-out: pIC50 (converted),920 nM
CCCCCC(C)N(Cc1ccc(OCC(C)C)cc1)C(Nc1ccc(N(C)C)cc1)=C1C(=O)OC(C)(C)OC1=O (stereo unspecified),IC50,read-out: IC50,90 nM
same,IC50,read-out: pIC50 (converted),89.9 nM
COc1ccc(NC(NCCCCCCCCc2ccc(OCCC(C)C)cc2)=C2C(=O)OC(C)(C)OC2=O)c(OC)c1,IC50,read-out: IC50,1500 nM
same,IC50,read-out: pIC50 (converted),1500 nM
CCCCCC(C)N(Cc1ccc(OCC(C)C)cc1)C(Nc1ccc(OC)cc1OC)=C1C(=O)OC(C)(C)OC1=O (stereo unspecified),IC50,read-out: IC50,550 nM
same,IC50,read-out: pIC50 (converted),550 nM
CCCCCc1ccc(CN(C(Nc2ccc(OC)cc2OC)=C2C(=O)OC(C)(C)OC2=O)C(C)CCCCC)cc1 (stereo unspecified),IC50,read-out: IC50,360 nM
same,IC50,read-out: pIC50 (converted),360 nM
CCCCCCC(CCCCCC)N(Cc1ccc(CC(C)C)cc1)C(Nc1ccc(N(C)C)cc1)=C1C(=O)OC(C)(C)OC1=O,IC50,read-out: IC50,44 nM
same,IC50,read-out: pIC50 (converted),44 nM
COc1ccc(NC(NCCCCCCCCc2ccc(CC(C)C)cc2)=C2C(=O)OC(C)(C)OC2=O)c(OC)c1,IC50,read-out: IC50,910 nM
same,IC50,read-out: pIC50 (converted),910 nM
COc1ccc(NC(=C2C(=O)OC(C)(C)OC2=O)N(Cc2ccc(CCC(C)C)cc2)C(CC(C)C)CC(C)C)c(OC)c1,IC50,read-out: IC50,1300 nM
same,IC50,read-out: pIC50 (converted),1300 nM
COc1ccc(NC(NCCCCCCCCc2ccc(CCC(C)C)cc2)=C2C(=O)OC(C)(C)OC2=O)c(OC)c1,IC50,read-out: IC50,3000 nM
same,IC50,read-out: pIC50 (converted),3000 nM
CCCCC(CC)N(Cc1ccc(CC(C)(C)C)cc1)C(Nc1ccc(N(C)C)cc1)=C1C(=O)OC(C)(C)OC1=O (stereo unspecified),IC50,read-out: IC50,190 nM
same,IC50,read-out: pIC50 (converted),640 nM
CCCCCC(C)N(Cc1ccc(CC(C)C)cc1)C(Nc1ccc(N(C)C)cc1C)=C1C(=O)OC(C)(C)OC1=O (stereo unspecified),IC50,read-out: IC50,350 nM
same,IC50,read-out: pIC50 (converted),350 nM
COc1cc(OC)c(NC(NCCCCCCCCc2ccc(CC(C)(C)C)cc2)=C2C(=O)OC(C)(C)OC2=O)c(OC)c1,IC50,read-out: IC50,700 nM
same,IC50,read-out: pIC50 (converted),700 nM
COc1ccc(NC(NCc2ccc(C(C)(C)C)cc2)=C2C(=O)OC(C)(C)OC2=O)c(OC)c1,IC50,read-out: IC50,260 nM
same,IC50,read-out: pIC50 (converted),260 nM
CCCCCC(C)N(Cc1ccc(C(C)(C)C)cc1)C(Nc1ccc(N(C)C)cc1)=C1C(=O)OC(C)(C)OC1=O (stereo unspecified),IC50,read-out: IC50,250 nM
same,IC50,read-out: pIC50 (converted),250 nM
CCCCCC(C)N(Cc1ccc(CC(C)(C)C)cc1)C(Nc1ccc(N(C)C)cc1C)=C1C(=O)OC(C)(C)OC1=O (stereo unspecified),IC50,read-out: IC50,260 nM
same,IC50,read-out: pIC50 (converted),260 nM
